Several values for one entry are separate records, joined by “and”; a condition that tells them apart may be missing. Equal entries are not always repeated. Activity calls are given as the source filed them.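 How the source made its calls: active means compounds giving half or more protection of infected cells from virus-caused growth loss, again on retest; inactive means the rest.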
Tested on: CEM cells HIV-1 protection, formazan growth assay
Assay: NCI AIDS Antiviral Assay
Settings: for IC50: measured here: growth of uninfected CEM cells
In short: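 Soluble formazan readout of cell growth; CEM cells ± HIV-1; 5 drug concs. ≥50% protection → retest; ≥50% again = moderately active; reproducible 100% = confirmed active.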

Row | Structure (SMILES) | EC50 [µM] | IC50 | outcome
1 | Cc1cn(C2CC(CCCO)C(CO)O2)c(=O)[nH]c1=O (stereo not drawn) | > 871 | > 871 µM | –
2 | O=C1c2ccccc2-c2c1c1ccccc1c(=O)n2-c1ccccc1 | > 30.9 | > 30.9 µM | –
3 | CC1C(c2ccccc2)NC(c2ccccc2)CC1(N)C#N (stereo not drawn) | > 123 | > 123 µM | –
4 | CSC(=S)N(C)NC(=O)c1cccc(C(=O)NN(C)C(=S)SC)n1 | > 200 | > 200 µM | –
5 | COc1ccc2c[n+](C)c3c4cc(OC)c(OC)cc4ccc3c2c1 | – | – | inactive
6 | CCOC(=O)C1=C(C)NC(C)=C(C(=O)OCCNC(=O)c2ccc(N=[N+]=[N-])cc2)C1c1ccccc1C(F)(F)F (stereo not drawn) | > 200 | 10.5 µM | –
7 | Nc1c(N=Nc2ccc(CCc3ccc(N=Nc4cc(S(=O)(=O)O)c5cccc(S(=O)(=O)O)c5c4N)cc3S(=O)(=O)O)c(S(=O)(=O)O)c2)cc(S(=O)(=O)O)c2cccc(S(=O)(=O)O)c12 | 6.31 | 148 µM | –
8 | Cc1cc(C)n(CCNCCn2nc(C)cc2C)n1 | – | – | inactive
9 | COCN1C(=O)[C@@H]2CCCN2C(=O)c2cc(Cl)ccc21 | > 200 | > 200 µM | –
10 | CC(C)(C)c1cc(C(C)(C)C)c2[n+]([O-])ssc1-2 | > 145 | 20.4 µM | –
11 | O=C(O)c1ccccc1SCc1cccc2c(=O)c3ccc(Cl)cc3oc12 | 10.2 | 30.2 µM | –
12 | O=S(c1ccc(Cl)cc1)S(=O)c1ccc(Cl)cc1 (stereo not drawn) | > 22.4 | 18.2 µM | –
13 | CCOC1c2cc(OC)c(OC)cc2-c2ccc3ccccc3c2N1C (stereo not drawn) | > 74.1 | 10.2 µM | –
14 | CCOC(=N)COC(=O)c1ccccc1 | > 200 | > 200 µM | –
15 | Clc1ccc(C2=NCON=C2c2ccc(Cl)cc2)cc1 | – | – | inactive
16 | C[n+]1cn(CC(=O)c2ccccc2)c(C(N)=O)c1N | > 263 | 214 µM | –
17 | Cc1cc(C)c(S(=O)(=O)N(CCCCN)OCCCN)c(C)c1 | > 200 | 28.2 µM | –
18 | N#CC1(C#N)C(C#N)(C#N)C12CCCCCC2 | – | – | inactive
19 | COc1cc(C2c3c(oc4ccccc4c3=O)Oc3oc4ccccc4c(=O)c32)cc(OC)c1O | > 5.75 | > 5.75 µM | –
20 | N#CC[C@@H](O)COc1ccccc1 | > 200 | > 200 µM | –
21 | Cc1cccc(N=NC2Sc3nc4ccccc4n3C2=O)c1 (stereo not drawn) | > 200 | > 200 µM | –
22 | Oc1c(CN2CCCC2)ccc2ccccc12 | > 200 | > 200 µM | –

Row | Structure (SMILES) | EC50 [µM] | IC50 | outcome
23 | OCc1cc[te]c1 | – | – | inactive
24 | CC(C)=CCCC(C)C1=C(O)C(=O)C(C)=CC1=O (stereo not drawn) | > 2 | 0.589 µM | –
25 | O=S(=O)(O)c1cc(S(=O)(=O)O)c2c(N=Nc3ccc(N=Nc4ccccc4)cc3)c(O)ccc2c1 | > 100 | > 100 µM | –
26 | CC(C)(C)C#COC(=O)c1ccccc1 | > 251 | > 251 µM | –
27 | CCCCCCc1cc2c(O)c(C(c3ccccc3)c3c(O)c4cc(CCCCCC)c(O)cc4oc3=O)c(=O)oc2cc1O | > 200 | 5.62 µM | –
28 | O=C(Nc1ccc(Cl)cc1)c1cc(S(=O)(=O)N2CCNNC2=O)c(S)cc1Cl | 9.77 | 129 µM | –
29 | N#CC(C(=O)CCC(=O)Nc1ccc(Cl)cc1)c1ccc(Cl)cc1 (stereo not drawn) | – | – | inactive
30 | N#C/C(=C\c1ccc(O)c(O)c1)C(=S)NCc1ccccc1 | > 200 | 32.4 µM | –
31 | Cc1ccc(NC(=O)/C(=N/NC(=O)C[N+](C)(C)C)c2nc3ccccc3[nH]c2=O)cc1 | > 186 | 120 µM | –
32 | CCCCCCCCCC1OC(CCCCCCCCC)OC(CCCCCCCCC)O1 (stereo not drawn) | > 200 | > 200 µM | –
33 | C/C(CC(=O)Nc1ccc(Cl)c(Cl)c1)=N/NC(=O)C[n+]1ccccc1 | > 162 | > 162 µM | –
34 | O=C1c2ccccc2Sc2ccccc2N1C(=O)C1CC1 | 39.8 | 55 µM | –
35 | O=C(CC/C(C/C(=N/O)c1ccc(F)cc1)=N/O)N(Cc1ccccc1)Cc1ccccc1 | > 112 | > 112 µM | –
36 | CC(=O)OCC1OC(n2c(S)c(C#N)c(-c3ccccc3)c(C#N)c2=O)C(OC(C)=O)C(OC(C)=O)C1OC(C)=O (stereo not drawn) | > 200 | > 200 µM and 21.9 µM | –
37 | [Pt].c1ccc(P(CCP(CCP(c2ccccc2)c2ccccc2)CCP(c2ccccc2)c2ccccc2)c2ccccc2)cc1 | > 5.62 | 2.95 µM | –
38 | COc1ccc(Cl)cc1NC(=O)c1ccco1 | > 200 | > 200 µM | –
39 | CC(=O)N1C(=O)CC23c4cccc([N+](=O)[O-])c4C(=O)N2CCCN13 (stereo not drawn) | > 398 | > 398 µM | –
40 | CCOc1ccccc1NC(=O)C(C#N)C1=C(Cl)C(=O)c2ccccc2C1=O (stereo not drawn) | – | – | inactive
41 | O=C1CCC[C@H]2O[C@@H](COCc3ccccc3)C[C@@H]12 | > 200 | 151 µM | –
42 | CN1CN(c2ccccc2)C2(CCN(Cc3nc4ccccc4s3)CC2)C1=O | > 200 | 30.9 µM | –
43 | COC(OC)C1OC(CO)C(n2cc(F)c(=O)[nH]c2=O)C1O (stereo not drawn) | > 200 | > 200 µM | –
44 | COc1ccc(OC)c2c(=O)c3ccccc3[nH]c12 | – | – | inactive

Row | Structure (SMILES) | EC50 [µM] | IC50 | outcome
45 | CC(=O)Nc1ccc(/C=C/C(=O)c2sc(-c3cccnc3)nc2C)cc1 | > 51.3 | > 51.3 µM | –
46 | C[C@H]1c2cccc(O)c2C(O)=C2C(=O)[C@]3(O)C(O)=C(C(N)=O)C(=O)[C@@H](N(C)C)[C@@H]3[C@@H](O)[C@@H]21 | > 186 | 8.32 µM | –
47 | COC(=O)C1CC2(C)C=CC1N(C(=O)OCc1ccccc1)C2 (stereo not drawn) | 63.1 | 102 µM | –
48 | CC(C)/C(Cl)=N\OC(NC(=O)P(=O)(c1ccccc1)c1ccccc1)(C(F)(F)F)C(F)(F)F | > 200 | 10.5 µM | –
49 | COc1cc(-c2c(C(C)=O)c(-c3ccccc3)n(C3OC(COC(C)=O)C(OC(C)=O)C(OC(C)=O)C3OC(C)=O)c(=S)c2C#N)ccc1O (stereo not drawn) | > 200 | 74.1 µM and 45.7 µM | –
50 | COC(=O)/C=C1\CC(C)C2=C(N1)SCC2=O (stereo not drawn) | > 355 | 138 µM | –
51 | CC1=Nc2nc(=N)nc3cccc(n23)N1 | > 200 | 170 µM | –
52 | Cc1ccc(NCC2(/N=C/c3ccccc3)OC(CO)C(O)C2O)cc1 (stereo not drawn) | > 263 | 6.61 µM | –
53 | COc1cc2c(c(OC)c1OC)C(=O)[C@@H](O)[C@H]2NC(=O)CCCCl | > 200 | > 200 µM | –
54 | C=C[C@]1(C)CC[C@]2(C)C(CC[C@@]3(C)C2C[C@H](O)[C@H](O)[C@@]3(C)O)C1 (stereo partly drawn) | > 200 | 141 µM | –
55 | Cc1ccc2oc(=O)c(C#N)c(/C=C/c3cccc4ccccc34)c2c1 | > 200 | > 200 µM | –
56 | CCc1n[nH]c(=O)n1CCO | – | – | inactive
57 | O=C(CC1(O)C(=O)Nc2c(Cl)cc(Cl)cc21)c1ccco1 (stereo not drawn) | > 398 | 83.2 µM | –
58 | Cc1cc(NS(=O)(=O)c2ccc(Nc3c4ccccc4nc4ccc(C(=O)Nc5ccc(S(=O)(=O)N=C(N)N)cc5)cc34)cc2)no1 | > 200 | 110 µM | –
59 | C#CCC(N)(CO)C(=O)O (stereo not drawn) | – | – | inactive
60 | O=C(OC1Cc2c(O)cc(O)cc2OC1c1ccc(O)c(O)c1)c1cc(O)c(O)c(O)c1 (stereo not drawn) | > 56.2 | 49 µM | –
61 | CC(=O)Nc1ncc(Sc2ccccc2C(=O)O)s1 | > 200 | > 200 µM | –
62 | CCOP(=O)(OCC)/C(C#N)=C/c1ccc2c(c1)OCO2 | > 427 | > 427 µM | –
63 | N#CC1(c2nc3ccccc3o2)C(=O)C(=O)N(C2C3CC4CC(C3)CC2C4)C(=O)C1=O (stereo not drawn) | > 107 | > 107 µM | –
64 | CC(=O)NC(CCCCNC(=O)NCCCl)C(=O)NCc1ccccc1 (stereo not drawn) | > 646 | > 646 µM | –

From PubChem BioAssay AID179 (DTP/NCI, 2004)
